From patent US20040057976A1, “Insect bait” (priority 2002, published 2004)
“And” between values parts separate entries of the source, which are not always exact repeats. Equal entries are not always repeated. Where two headings read alike, the source gives them in different places.

How the values were obtained:
white-footed ants = assay: Two-choice, random-order preference tests on exterior walls; format: in vivo, Technomyrmex albipes
Method: Two commercial ready-to-use (RTU) ant baits and several sugar solutions were tested with and without active ingredients, including 10,000 ppm DOT (Uncle Albert's Super Smart Ant Bait®, A Safe Pest Eliminators, Inc., Miami, Fla.) and 10,000 ppm orthoboric acid (Drax Liquidator®, Waterbury Companies, Inc., Waterbury, Conn.). Sugar water solutions tested included: 100,000 ppm, 150,000 ppm, 200,000 ppm, 250,000 ppm, 350,000 ppm, 400,000 ppm, and 500,000 ppm sucrose (Publix Supermarkets, […] and 500,000 ppm fructose (Fisher Scientific, Pittsburgh, Pa.), 250,000 ppm maltose (Fisher Scientific). Four insect bait formulations of the invention (ND 1, ND2, ND3, ND4, see Table II) were also tested against sugars and commercial baits. […] Borax, Los Angeles, Calif.). Glass shell vials (6-ml capacity) with […] plastic caps (Fisher Scientific) were used for bait containers. Vials were modified for use as bait containers by drilling holes (6 mm) in the caps, inserting cotton dental wicks, which minimize bait desiccation and entrapment by ants, adding 4.5-ml solution, and using […]® (Pacer Technology, Rancho Cucamonga, Calif.) adhesive putty to hold the vials on the walls. Each test consisted of 5 bait vial pairs placed in 2 columns (FIG. 1). […] Nine counts of ants on each wick were taken approximately every 30 minutes over 4.5 hours. When the numbers of ants could not be counted visually, digital photographs were taken, and counts were taken from a computer display. Data were analyzed using t-Test and Mann-Whitney Rank Sum Tests at P=0.05.

T. Albipes adults [1] = assay: Laboratory efficacy test, second trial (non-forced bioassay, 15 treatments); format: in vivo, Technomyrmex albipes; details: means of 5 replicates
Method: When ant populations appeared stable, treatments were applied. No ants were added during the experiment.
Surface treatments included 1,200 ppm fipronil (Termidor®& SC), 500 ppm indoxacarb (DuPont, Wilmington, Del.), 500 ppm deltamethrin (DeltaDust®, Aventis Environmental Science), and 600 ppm lambda cyhalothrin (Demand®V CS, Syngenta Crop Protection).
Both vials had felt pads under them. Boxes with gels had the gels in weighing boats.
Mortality for the second trial was recorded for 47 days.

T. Albipes adults [2] = details: first trial, non-forced bioassay, means of 5 replicates
Text: White-footed ants were collected from a stand of Phoenix roebelenii palms at the University of Florida Fort Lauderdale Research and Education Center (Broward Co., FL). Adult ants and brood were collected from nesting sites in palm thatch between 9 a.m. and 3 p.m., when most of the foragers are in the nests. The thatch was placed in a plastic 100-liter garbage pail through a 28-cm hole cut into the center of its lid. The upper portions of the interior sides of the pail were coated with a petroleum jelly (Vaseline® London, UK) to retard the ants' escape.
Infested thatch material was taken from the garbage pail, placed in the container, covered with 1×15-cm strips of wood and a separator sheet of 3-mm polycarbonate with 2-mm holes. Dripping water from a 2-1 tank suspended over the container forced the ants to leave the thatch and enter nesting tubes (10×75 mm clear polystyrene test tubes) (Fisher Scientific, Pittsburgh, Pa.), filled at the bottom with a small cotton ball soaked with sugar water, and completely covered with aluminum foil.
Nalgene™ reusable plastic utility boxes with lids ([…]) (Fisher Scientific, Pittsburgh, Pa.) were used to hold white-footed ant colonies for laboratory tests (FIG. 4). Nesting tubes with about 200 ants and dozens of brood were placed into each box, held in place with a small amount of Handi-Tak®. Ants were provisioned with water by placing a small cotton ball moistened with approximately 2-ml deionized water in a 41×41×8 mm plastic weighing boat.
Five holes (0.86 mm ID) were drilled into the caps. Vials were filled with 4.5 ml bait solution, inverted, and attached to the sides of the boxes with Handi-Tak® (FIG. 3). Sugar water was fed ad libitum to the ants at all times and supplemented twice weekly by live termites or canned chicken for protein. A felt pad was placed under each vial to catch errant drops and prevent ants from being entrapped in their sticky residue. Ants were allowed to acclimatize in boxes for several weeks. Each day dead ants were removed and replaced with live ants. When ant populations appeared stable, treatments were applied. No ants were added during the experiment.
Fourteen treatments (5 replicates each, assigned randomly) were applied to the ants in boxes. […] The suspension of XR-007 was placed into a plastic weighing boat (0.5 g), and replaced twice a week or when it desiccated. One corner was cut away to allow for easier access by the ants.
Both vials had felt pads under them. Boxes with gels had the gels in weighing boats. The boats were on the left side of the box, and the untreated sugar water vials were on the right side. […] This was accomplished by adding 0.17-ml to panels and distributing the solution evenly with a fine paintbrush previously saturated in solution. One-half g XR-007 and indoxacarb in honey were placed into the bulb of 9.3-ml large-tip opening transfer pipettes (having had 8-cm cut back from the tip, Samco®b, San Fernando, Calif.).
Dead ants were removed and counted daily for the first week, then twice weekly thereafter. At the end of the experiment, all ants still living were killed with ethanol and counted to determine the total number of ants in each box. […] Mean percent mortalities were analyzed by ANOVA (analysis of variance) and general linear model (SAS Institute, 1989 SAS/STAT user's guide, version 6, 4th ed. SAS Institute, Cary, N.C.) and means separated using Student-Newman-Keals test at P<0.05.
Mortality for the first trial was recorded for 51 days.

[3] = test 17: 50% Fructose vs. 50% Glucose, P=0.817
[4] = test 19: 25% Sucrose vs. 25% Glucose, P=0.463
[5] = test 18: 25% Sucrose vs. 25% Maltose, P=0.852

O=C[C@H](O)[C@@H](O)[C@H](O)[C@H](O)CO [glucose]
preference in binary choice test (counts of ants on wicks) (white-footed ants; [3]): no significant preferences
preference in binary choice test (counts of ants on wicks) (white-footed ants; [4]): no significant preferences

COC(=O)N(C(=O)N1CO[C@@]2(C(=O)OC)Cc3cc(Cl)ccc3C2=N1)c1ccc(OC(F)(F)F)cc1 [DPX surface, indoxacarb]
Mean % mortality (+/SD) of T. albipes adults (T. Albipes adults [1]; 1 day exposure): 2.19 ± 2.42bcd %
Mean % mortality (+/SD) of T. albipes adults (T. Albipes adults [1]; 2 days exposure): 2.56 ± 2.51c %
Mean % mortality (+/SD) of T. albipes adults (T. Albipes adults [1]; 8 days exposure): 5.61 ± 4.96c %
Mean % mortality (+/SD) of T. albipes adults (T. Albipes adults [1]; 29 days exposure): 16.59 ± 12.72de %
Mean % mortality (+/SD) of T. albipes adults (T. Albipes adults [1]; 47 days exposure): 27.87 ± 14.59e %

spinosad
Mean percent Mortality (+/SD) of T. Albipes adults (T. Albipes adults [2]; 1 day exposure): 1.01 ± 0.87b %
Mean percent Mortality (+/SD) of T. Albipes adults (T. Albipes adults [2]; 3 days exposure): 2.02 ± 0.83d %
Mean percent Mortality (+/SD) of T. Albipes adults (T. Albipes adults [2]; 7 days exposure): 3.78 ± 1.85e %
Mean percent Mortality (+/SD) of T. Albipes adults (T. Albipes adults [2]; 30 days exposure): 16.15 ± 3.78c %
Mean percent Mortality (+/SD) of T. Albipes adults (T. Albipes adults [2]; 51 days exposure): 34.51 ± 2.42cd %

O=[N+]([O-])NC1=NCCN1Cc1ccc(Cl)nc1 [Imidacloprid]
Mean percent Mortality (+/SD) of T. Albipes adults (T. Albipes adults [2]; 1 day exposure): 5% and 4.92 ± 4.02ab %
Mean percent Mortality (+/SD) of T. Albipes adults (T. Albipes adults [2]; 7 days exposure): 29.84 ± 10.63bc %
Mean percent Mortality (+/SD) of T. Albipes adults (T. Albipes adults [2]; 7 days exposure, listed as Irnidacloprid): 30%
Mean percent Mortality (+/SD) of T. Albipes adults (T. Albipes adults [2]; 30 days exposure): 79% and 78.55 ± 4.83a %
Mean percent Mortality (+/SD) of T. Albipes adults (T. Albipes adults [2]; 51 days exposure): 91% and 90.86 ± 5.43a %

O.O.O.O.O=BOB1OB(OB=O)OB2OB([O-])OB([O-])OB(O1)O2.[Na+].[Na+] [DOT, disodium octaborate tetrahydrate]
preference in binary choice test (counts of ants on wicks) (white-footed ants; tests 24-30: 25% Sucrose vs. 25% Sucrose + 1% to 7% DOT in 1% increments, P=0.218 to 0.916): no observed preferences

OC[C@H]1O[C@H](O[C@H]2[C@H](O)[C@@H](O)C(O)O[C@@H]2CO)[C@H](O)[C@@H](O)[C@@H]1O (mixture of isomers) [maltose]
preference in binary choice test (counts of ants on wicks) (white-footed ants; [5]): no significant preferences

OC[C@H]1O[C@@](CO)(O[C@H]2O[C@H](CO)[C@@H](O)[C@H](O)[C@H]2O)[C@@H](O)[C@@H]1O [sucrose]
preference in binary choice test (counts of ants on wicks) (white-footed ants; test 1: 10% Sucrose vs. water, P<0.001): highly preferred
preference in binary choice test (counts of ants on wicks) (white-footed ants; test 3: 25% Sucrose vs. 10% Sucrose, P<0.05): preferred
preference in binary choice test (counts of ants on wicks) (white-footed ants; test 4: 25% Sucrose vs. 25% Fructose, P<0.001): preferred
preference in binary choice test (counts of ants on wicks) (white-footed ants; test 5: 25% Sucrose vs. 15% Sucrose, P<0.05): preferred
preference in binary choice test (counts of ants on wicks) (white-footed ants; test 6: 25% Sucrose vs. 20% Sucrose, P<0.05): preferred
preference in binary choice test (counts of ants on wicks) (white-footed ants; test 7: 40% Sucrose vs. ND1, P=0.002): preferred
preference in binary choice test (counts of ants on wicks) (white-footed ants; test 13: 25% Sucrose vs. Uncle Albert's Super Smart Ant Bait (no active ingredient), P=0.458): no significant preferences
preference in binary choice test (counts of ants on wicks) (white-footed ants; test 15: 25% Sucrose vs. 50% Sucrose, P=0.112): no significant preference
preference in binary choice test (counts of ants on wicks) (white-footed ants; [5]): no significant preferences
preference in binary choice test (counts of ants on wicks) (white-footed ants; [4]): no significant preferences

O=C(CO)[C@@H](O)[C@H](O)[C@H](O)CO [fructose]
preference in binary choice test (counts of ants on wicks) (white-footed ants; test 2: 25% Fructose vs. 25% Maltose, P=0.033): preferred
preference in binary choice test (counts of ants on wicks) (white-footed ants; test 14: 25% Fructose vs. Drax Liquidator (no active ingredient), P=0.580): no significant preferences
preference in binary choice test (counts of ants on wicks) (white-footed ants; test 16: 25% Fructose vs. Uncle Albert's Super Smart Ant Bait (no active ingredient), P 0.057): no significant preferences
preference in binary choice test (counts of ants on wicks) (white-footed ants; [3]): no significant preferences

CN1COCN(Cc2cnc(Cl)s2)/C1=N\[N+](=O)[O-] [Thiamethoxam 10 ppm, Thiamethoxam]
Mean percent Mortality (+/SD) of T. Albipes adults (T. Albipes adults [2]; 1 day exposure): 4% and 4.44 ± 2.26ab %
Mean percent Mortality (+/SD) of T. Albipes adults (T. Albipes adults [2]; 1 day exposure, listed as Thiamethoxam 1 ppm): 1.66 ± 1.17b %
Mean percent Mortality (+/SD) of T. Albipes adults (T. Albipes adults [2]; 3 days exposure): 18.33 ± 8.49b %
Mean percent Mortality (+/SD) of T. Albipes adults (T. Albipes adults [2]; 3 days exposure, listed as Thiamethoxam 1 ppm): 3.64 ± 2.80cd %
Mean percent Mortality (+/SD) of T. Albipes adults (T. Albipes adults [2]; 7 days exposure): 39% and 38.81 ± 11.13b %
Mean percent Mortality (+/SD) of T. Albipes adults (T. Albipes adults [2]; 7 days exposure, listed as Thiamethoxam 1 ppm): 6.44 ± 4.73e %
Mean percent Mortality (+/SD) of T. Albipes adults (T. Albipes adults [2]; 30 days exposure): 65% and 64.77 ± 15.51a %
Mean percent Mortality (+/SD) of T. Albipes adults (T. Albipes adults [2]; 30 days exposure, listed as Thiamethoxam 1 ppm): 19.73 ± 9.98c %
Mean percent Mortality (+/SD) of T. Albipes adults (T. Albipes adults [2]; 51 days exposure): 84% and 84.40 ± 10.09a %
Mean percent Mortality (+/SD) of T. Albipes adults (T. Albipes adults [2]; 51 days exposure, listed as Thiamethoxam 1 ppm): 44.02 ± 13.73bcd %

N#Cc1nn(-c2c(Cl)cc(C(F)(F)F)cc2Cl)c(N)c1[S+]([O-])C(F)(F)F (stereo not drawn) [Fipronil, fipronil]
Mean percent Mortality (+/SD) of T. Albipes adults (T. Albipes adults [2]; 1 day exposure): 0.98 ± 0.70b %
Mean percent Mortality (+/SD) of T. Albipes adults (T. Albipes adults [2]; 3 days exposure): 3.46 ± 1.38cd %
Mean percent Mortality (+/SD) of T. Albipes adults (T. Albipes adults [2]; 7 days exposure): 6.76 ± 2.25e %
Mean percent Mortality (+/SD) of T. Albipes adults (T. Albipes adults [2]; 30 days exposure): 27.88 ± 5.89bc %
Mean percent Mortality (+/SD) of T. Albipes adults (T. Albipes adults [2]; 51 days exposure): 53.76 ± 10.84b %
